Experimental data as given in PubChem BioAssay AID256 (DTP/NCI, 2004).
“And” between values parts separate entries of the source, which are not always exact repeats. Identical values can stand only once. Toxic doses and inconclusive results are not listed. Rule for the calls: active = survival T/C of 150% or more; inactive = T/C below 125% in these data.

Test system: CD2F1 mice, L1210 leukemia ip, survival T/C
Experiment: NCI In Vivo Anticancer Drug Screen. Data for tumor model L1210 Leukemia (intraperitoneal) in CD2F1 (CDF1) mice
Conditions: higher = longer survival
Method in brief: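 Compound-dosed mice with transplantable tumor versus matched vehicle controls; endpoint ratio T/C reported.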

[1] = endpoint: mean survival time, dose: 100.0 mg/kg/injection, schedule: Q04DX002 (ip), vehicle: saline with Tween-80
[2] = endpoint: mean survival time, dose: 200.0 mg/kg/injection, schedule: Q04DX002 (ip), vehicle: saline with Tween-80
[3] = endpoint: mean survival time, dose: 100.0 mg/kg/injection, schedule: Q01DX001 (ip), vehicle: saline with Tween-80
[4] = endpoint: mean survival time, dose: 200.0 mg/kg/injection, schedule: Q01DX001 (ip), vehicle: saline with Tween-80
[5] = endpoint: mean survival time, dose: 400.0 mg/kg/injection, schedule: Q01DX001 (ip), vehicle: saline with Tween-80
[6] = endpoint: mean survival time, dose: 100.0 mg/kg/injection, schedule: Q04DX003 (ip), vehicle: saline with Tween-80
[7] = endpoint: mean survival time, dose: 200.0 mg/kg/injection, schedule: Q04DX003 (ip), vehicle: saline with Tween-80
[8] = endpoint: mean survival time, dose: 400.0 mg/kg/injection, schedule: Q04DX003 (ip), vehicle: saline with Tween-80
[9] = endpoint: mean survival time, dose: 25.0 mg/kg/injection, schedule: Q04DX002 (ip), vehicle: saline with Tween-80
[10] = endpoint: mean survival time, dose: 50.0 mg/kg/injection, schedule: Q04DX002 (ip), vehicle: saline with Tween-80
[11] = endpoint: mean survival time, dose: 100.0 mg/kg/injection, schedule: Q04DX003 (ip), vehicle: saline
[12] = endpoint: mean survival time, dose: 200.0 mg/kg/injection, schedule: Q04DX003 (ip), vehicle: saline
[13] = endpoint: mean survival time, dose: 400.0 mg/kg/injection, schedule: Q04DX003 (ip), vehicle: saline
[14] = endpoint: mean survival time, dose: 100.0 mg/kg/injection, schedule: Q01DX001 (ip), vehicle: saline
[15] = endpoint: mean survival time, dose: 200.0 mg/kg/injection, schedule: Q01DX001 (ip), vehicle: saline
[16] = endpoint: mean survival time, dose: 400.0 mg/kg/injection, schedule: Q01DX001 (ip), vehicle: saline

Measured: T/C

COC(CCl)(CCl)OC
inactive: endpoint: mean survival time, dose: 10.0 mg/kg/injection, schedule: Q01DX009 (ip), vehicle: saline with Tween-80 87 % of control | endpoint: mean survival time, dose: 20.0 mg/kg/injection, schedule: Q01DX009 (ip), vehicle: saline with Tween-80 90 % of control

NC(=O)c1cc(C(N)=O)n(C2OC(CO)C(O)C2O)n1 (stereo not given)
inactive: endpoint: mean survival time, dose: 12.5 mg/kg/injection, schedule: Q01DX005 (ip), vehicle: water 100 % of control | endpoint: mean survival time, dose: 25.0 mg/kg/injection, schedule: Q01DX005 (ip), vehicle: water 100 % of control | endpoint: mean survival time, dose: 50.0 mg/kg/injection, schedule: Q01DX005 (ip), vehicle: water 92 % of control | endpoint: mean survival time, dose: 100.0 mg/kg/injection, schedule: Q01DX005 (ip), vehicle: water 107 % of control | endpoint: mean survival time, dose: 200.0 mg/kg/injection, schedule: Q01DX005 (ip), vehicle: water 96 % of control

O=C(COc1ccc(F)cc1)OCCOC(=O)COc1ccc(F)cc1
inactive: [1] 100 % of control | [2] 95 % of control

O=c1c2ccccc2sc2ccc3c(ccc4sc5ccccc5c(=O)c43)c12
inactive: [3] 93 % of control | [4] 100 % of control | [5] 92 % of control

C=C=CCCCCCCCC
inactive: [6] 102 % of control | [7] 98 % of control | [8] 105 % of control

OC(c1ccccc1)C1CCN(Cc2ccccc2)CC1 (stereo not given)
inactive: [6] 96 % of control

N#CCCN(CCCN1CCOCC1)C(=S)Nc1cccc(C(F)(F)F)c1
inactive: [9] 104 % of control | [10] 98 % of control | [1] 106 % of control

O=C(/C=C/c1ccc(Cl)cc1)c1ccccc1
inactive: endpoint: mean survival time, dose: 50.0 mg/kg/injection, schedule: Q01DX009 (ip), vehicle: Klucel (hydroxypropylcellulose) (HPC) 94 % of control | endpoint: mean survival time, dose: 100.0 mg/kg/injection, schedule: Q01DX009 (ip), vehicle: Klucel (hydroxypropylcellulose) (HPC) 102 % of control | endpoint: mean survival time, dose: 200.0 mg/kg/injection, schedule: Q01DX009 (ip), vehicle: Klucel (hydroxypropylcellulose) (HPC) 105 % of control

c1ccc(-c2ncnc3c2Cc2ccccc2-3)cc1
inactive: endpoint: mean survival time, dose: 100.0 mg/kg/injection, schedule: Q01DX009 (ip), vehicle: saline sonified 94 % of control | endpoint: mean survival time, dose: 200.0 mg/kg/injection, schedule: Q01DX009 (ip), vehicle: saline sonified 100 % of control | endpoint: mean survival time, dose: 400.0 mg/kg/injection, schedule: Q01DX009 (ip), vehicle: saline sonified 98 % of control

Nc1ccc2cc(S(=O)(=O)O)cc(O)c2c1
inactive: [6] 98 % of control | [7] 102 % of control | [8] 98 % of control

N#CC1(Nc2ccccc2)CCCCC1
inactive: endpoint: mean survival time, dose: 50.0 mg/kg/injection, schedule: Q01DX009 (ip), vehicle: other 95 % of control | endpoint: mean survival time, dose: 100.0 mg/kg/injection, schedule: Q01DX009 (ip), vehicle: other 102 % of control | [6] 97 % of control | [7] 100 % of control

CC(=O)NCCCN1CCOCC1
inactive: [11] 96 % of control | [12] 104 % of control | [13] 98 % of control

CSC1=NCCN1
inactive: [11] 97 % of control | [12] 97 % of control | [13] 91 % of control

CC1(CC2SCCCS2)SCCCS1
inactive: [9] 96 % of control | [10] 93 % of control | [1] 96 % of control | [2] 86 % of control

O=S(=O)(NCCNS(=O)(=O)c1ccccc1)c1ccccc1
inactive: [3] 110 % of control | [4] 95 % of control | [5] 100 % of control

O=c1cc(-c2ccccc2)[nH]c2c1CCCC2
inactive: endpoint: median survival time, dose: 12.5 mg/kg/injection, schedule: Q01DX009 (ip), vehicle: saline with Tween-80 102 % of control | endpoint: median survival time, dose: 25.0 mg/kg/injection, schedule: Q01DX009 (ip), vehicle: saline with Tween-80 105 % of control | endpoint: median survival time, dose: 50.0 mg/kg/injection, schedule: Q01DX009 (ip), vehicle: saline with Tween-80 103 % of control and 108 % of control and 109 % of control | endpoint: median survival time, dose: 100.0 mg/kg/injection, schedule: Q01DX009 (ip), vehicle: saline with Tween-80 115 % of control and 116 % of control and 105 % of control | endpoint: median survival time, dose: 200.0 mg/kg/injection, schedule: Q01DX009 (ip), vehicle: saline with Tween-80 117 % of control and 120 % of control | endpoint: median survival time, dose: 400.0 mg/kg/injection, schedule: Q01DX009 (ip), vehicle: saline with Tween-80 90 % of control and 103 % of control

CN(C)CCCNCc1c[nH]c(=O)[nH]c1=O
inactive: endpoint: mean survival time, dose: 100.0 mg/kg/injection, schedule: Q01DX009 (ip), vehicle: saline 90 % of control | [11] 102 % of control | endpoint: mean survival time, dose: 200.0 mg/kg/injection, schedule: Q01DX009 (ip), vehicle: saline 102 % of control | [12] 100 % of control | endpoint: mean survival time, dose: 400.0 mg/kg/injection, schedule: Q01DX009 (ip), vehicle: saline 104 % of control | [13] 100 % of control

COC1OC(CSC#N)C2OC(C)(C)OC12 (stereo not given)
inactive: endpoint: mean survival time, dose: 5.0 mg/kg/injection, schedule: Q01DX001 (ip), vehicle: saline 97 % of control | endpoint: mean survival time, dose: 10.0 mg/kg/injection, schedule: Q01DX001 (ip), vehicle: saline 101 % of control | endpoint: mean survival time, dose: 20.0 mg/kg/injection, schedule: Q01DX001 (ip), vehicle: saline 101 % of control | endpoint: mean survival time, dose: 40.0 mg/kg/injection, schedule: Q01DX001 (ip), vehicle: saline 101 % of control

NC(N)=N/N=C/c1ccc(Cl)cc1
inactive: endpoint: mean survival time, dose: 20.0 mg/kg/injection, schedule: Q01DX009 (ip), vehicle: Klucel (hydroxypropylcellulose) (HPC) 100 % of control | endpoint: mean survival time, dose: 40.0 mg/kg/injection, schedule: Q01DX009 (ip), vehicle: Klucel (hydroxypropylcellulose) (HPC) 96 % of control

CCOC(OCC)c1cc(=O)[nH]c(N)n1
inactive: [14] 103 % of control | [15] 101 % of control | [16] 100 % of control

CC(C)CNC1=CC(=O)c2ccccc2C1=O
inactive: [6] 95 % of control | [7] 98 % of control | [8] 101 % of control

COC(=O)C1(C)CCCC2(C)C1CCC13OCC(CC21)C(O)(C(C)C)C3O (stereo not given)
inactive: [6] 95 % of control | [7] 97 % of control | [8] 103 % of control

O=c1c2ccccc2c(-c2ccccc2)nn1Cc1ccccc1
inactive: [6] 103 % of control | [7] 108 % of control | [8] 98 % of control

CCCCCCCCCCCCCCCCOS(=O)(=O)O
inactive: endpoint: mean survival time, dose: 37.5 mg/kg/injection, schedule: Q01DX009 (ip), vehicle: saline 98 % of control | endpoint: mean survival time, dose: 75.0 mg/kg/injection, schedule: Q01DX009 (ip), vehicle: saline 97 % of control | endpoint: mean survival time, dose: 150.0 mg/kg/injection, schedule: Q01DX009 (ip), vehicle: saline 98 % of control

CN(C)CCOC(=O)COc1ccc(Cl)cc1
inactive: [14] 97 % of control | [15] 100 % of control | [16] 94 % of control

Clc1c(Cl)c(CBr)c(Cl)c(-c2c(Cl)c(Cl)c(Cl)c(CBr)c2Cl)c1Cl
inactive: [6] 93 % of control | [7] 107 % of control | [8] 104 % of control

ClCCN(CCCl)CCCN1c2ccccc2Sc2ccc(Cl)cc21
inactive: endpoint: mean survival time, dose: 18.0 mg/kg/injection, schedule: Q01DX001 (ip), vehicle: saline with Tween-80 103 % of control | endpoint: mean survival time, dose: 28.0 mg/kg/injection, schedule: Q01DX001 (ip), vehicle: saline with Tween-80 100 % of control | endpoint: mean survival time, dose: 40.0 mg/kg/injection, schedule: Q01DX001 (ip), vehicle: saline with Tween-80 97 % of control | endpoint: mean survival time, dose: 60.0 mg/kg/injection, schedule: Q01DX001 (ip), vehicle: saline with Tween-80 103 % of control | endpoint: mean survival time, dose: 90.0 mg/kg/injection, schedule: Q01DX001 (ip), vehicle: saline with Tween-80 107 % of control | endpoint: mean survival time, dose: 135.0 mg/kg/injection, schedule: Q01DX001 (ip), vehicle: saline with Tween-80 112 % of control
